Measurements published in PMC3027097 (Journal of Translational Medicine, 2011).

Key:
[1] = system: ERK2 phosphorylation in EC; assay: hFN-induced ERK2 phosphorylation, western blot, EC; assay type: cell-based; details: densitometry
Protocol: (§1) In vitro studies were performed on cell cultures of ECs or VSMCs, cultured in Dulbecco's modified Eagle's medium (DMEM; Sigma-Aldrich, Milan, Italy) as previously described and validated. Cell culture plates were filled with 10 μg/cm^2 of human fibronectin (hFN, Millipore®, Bedford, MA, USA) as described. All experiments were performed in triplicate with cells between passages 5 and 9.
(§2) Immunoblot analyses were performed as previously described and validated. Mouse monoclonal antibodies to extracellular signal regulated kinase (ERK2) and phospho-ERK, anti-rabbit VEGF and actin were from Santa Cruz Biotecnology (Santa Cruz, CA, USA). Levels of VEGF were determined using an antibody raised against VEGF-165 (Santa Cruz Biotechnology). Experiments were performed in triplicate to ensure reproducibility. Data are presented as arbitrary densitometry units (ADU) after normalization for the total corresponding protein or actin as internal control.

[2] = system: bovine aortic endothelial cells (ECs); assay: Endothelial Matrigel assay (tube formation); assay type: cell-based; details: hFN 100 μg/ml, peptides 10^-6 M, 37°C, mean ± SEM
Protocol: The formation of network-like structures by ECs on an extracellular matrix (ECM)-like 3D gel consisting of Matrigel® (BD Biosciences, Bedford, MA, USA), was performed as previously described and validated [27, 28]. The six-well multidishes were coated with growth factor-reduced Matrigel in according to the manufacturer's instructions. ECs (5×10^4) were seeded with c(RGDf[NMe]V) or RGDechiHCit (10^-6 M), in the absence (negative control) or presence (100 μg/ml) of hFN [24]. Cells were incubated at 37°C for 24h in 1 ml of DMEM. […] Network formation was observed using an inverted phase-contrast microscope (Zeiss). Representative fields were taken, and the average of the total number of complete tubes formed by cells was counted in 15 random fields by two independent investigators.

[3] = system: WKY rats; assay: Wound healing assay, full-thickness skin wound; assay type: in vivo, rat
Protocol: (§3) Wound healing assay was performed on 14-week-old (weight 293 ± 21 g) normotensive WKY male rats (Charles River Laboratories, Calco (LC), Italy; n = 18), and Matrigel plugs experiments were carried out on 16-week-old (weight 33 ± 4 g) c57BL/6 mice (Charles River Laboratories, Milan, Italy; n = 13). All animal procedures were performed in accordance with the Guide for the Care and Use of Laboratory Animals published by the National Institutes of Health in the United States (NIH Publication No. 85- 23, revised 1996) and approved by the Ethics Committee for the Use of Animals in Research of "Federico II" University.
The rats (n = 18) were anesthetized using vaporized isoflurane (4%, Abbott) and maintained by mask ventilation (isoflurane 1.8%)[29]. The dorsum was shaved by applying a depilatory creme (Veet, Reckitt-Benckiser, Milano, Italy) and disinfected with povidone iodine scrub. […] Two operators blinded to the identity of the sample examined and measured wound areas every day, for 8 days. Direct measurements of wound region were determined by digital planimetry (pixel area), and subsequent analysis was performed using a computer-assisted image analyzer (ImageJ software, version 1.41, National Institutes of Health, Bethesda, MD, USA). Wound healing was quantified as a percentage of the original injury size. […]

[4] = system: c57BL/6 mice; assay: Matrigel plugs, EC infiltration by lectin staining; assay type: in vivo, mouse; details: s.c. Matrigel with VEGF and 10^-5M peptide, seven days, mean ± SEM
Protocol: as §3
Mice (n = 13), anesthetized as described above, were subcutaneously injected midway on the dorsal side, using sterile conditions, with 0.2 ml of Matrigel® basement matrix, pre-mixed with 10^-6M VEGF and 10^-5M c(RGDf[NMe]V) (n = 4), 10^-6M VEGF and 10^-5M RGDechiHCit (n = 5), or 10^-6M VEGF alone (n = 4). After seven days, mice were euthanized and the implanted plugs were harvested from underneath the skin, fixed in 10% neutral-buffered formalin solution and then embedded in paraffin. Invading ECs were identified and quantified by analysis of lectin immunostained sections, as described.
All tissues were cut in 5 μm sections and slides were counterstained with a standard mixture of hematoxylin and eosin. […]

[5] = system: ERK2 phosphorylation in VSMC; assay: hFN-induced ERK2 phosphorylation, western blot, VSMC; assay type: cell-based; details: densitometry
Protocol: as §1, §2

[6] = system: vascular smooth muscle cells (VSMC); assay: hFN-induced cell proliferation assay (cell number), VSMC; assay type: cell-based
Protocol: as §1
(§4) Cell cultures were prepared as previously described. Briefly, cells were seeded at density of 100000 per well in six-well plates, serum starved, pre-incubated at 37°C for 30' with c(RGDf[NMe]V) or RGDechiHCit (10^-6 M). Proliferation was induced using hFN (100 μg/ml). Cell number was measured at 3, 6 and 20 h after stimulation as previously described.

[7] = system: bovine aortic endothelial cells (EC); assay: hFN-induced cell proliferation assay (cell number), EC; assay type: cell-based
Protocol: as §1, §4

[8] = system: VEGF production in bovine aortic endothelial cells (ECs); assay: VEGF quantification by western blot, EC; assay type: cell-based; details: 6 hours of stimulation with hFN, peptides 10^-6 M, mean ± SEM
Protocol: VEGF production was measured as previously described [26]. Briefly, ECs were seeded at a density of 600000 per well in six well plates, serum starved overnight, seeded with c(RGDf[NMe]V) or RGDechiHCit (10^-6 M) and then stimulated with hFN for 6 hours.
Immunoblot analyses were performed as previously described and validated [23, 28]. […] Levels of VEGF were determined using an antibody raised against VEGF-165 (Santa Cruz Biotechnology) [26]. Experiments were performed in triplicate to ensure reproducibility. Data are presented as arbitrary densitometry units (ADU) after normalization for the total corresponding protein or actin as internal control [24].

[9] = human serum (Lonza, Basel, Switzerland); details: 37°C, up to 24h

| Compound | hFN-induced phosphorylation of ERK2 in EC [1] | tube formation on Matrigel [2] [branches per 10000 μm^2] | wound healing (closure of full-thickness wounds) ([3]; pluronic gel 30% containing 10^-6 M peptide placed daily on 20 mm wound, 8 days) | wound histology ([3]; wounds excised 8 days after surgery) | EC infiltration of Matrigel plugs [4] [fold over VEGF alone] | hFN-induced phosphorylation of ERK2 in VSMC [5] | VSMC proliferation ([6]; hFN 100 μg/ml stimulation, peptides 10^-6 M, mean ± SEM, NS) | VSMC proliferative response to hFN at 20h ([6]; hFN stimulation, 20h) | EC proliferation ([7]; hFN 100 μg/ml stimulation, peptides 10^-6 M pre-incubated 30' at 37°C, after 6 hours, mean ± SEM) | EC proliferation, peptide given alone ([7]; without hFN) | VEGF expression levels in EC [8] | not cleaved [9] |
| --- | --- | --- | --- | --- | --- | --- | --- | --- | --- | --- | --- | --- |
| CC(C)[C@H]1C(=O)N[C@@H](CCCNC(=N)N)C(=O)NCC(=O)N[C@@H](CC(=O)O)C(=O)N[C@H](Cc2ccccc2)C(=O)N1C [c(RGDf[NMe]V)] | significantly inhibited | 14.11 ± 3.9 | slowed down healing | exhibited a retarded repair pattern | 0.185 ± 0.027 | decreased such activation | +0.9 ± 0.09 fold over basal | induced an attenuation of such proliferative response | +0.6 ± 0.38 fold over basal | did not affect EC proliferation | +3.19 ± 0.73 fold over basal, ADU |  |
| c(RGDf[NMe]V) |  |  |  |  |  |  |  |  |  |  |  | After 24h of incubation chromatogram and mass profiles failed to identify any degradation product |
